Experimental findings from ChEMBL document CHEMBL1129670, “Synthesis and structure-activity relationships of N-propyl-N-(4-pyridinyl)-1H-indol-1-amine (besipirdine) and related analogs as potential therapeutic agents for Alzheimer's disease” (J Med Chem, 1996) are described below.

What is called IC50 is the concentration at which inhibition is half-maximal. The term ED50 denotes the dose that gives a 50% effect, or the effect in half of the subjects. Low values mean an effect at a small dose, high ones a need for a large dose.

Assay [1] deals with Sodium-dependent noradrenaline transporter (Homo sapiens, UniProt P23975).
Description: Inhibitory activity against norepinephrine (NE) uptake in rat whole brain synaptosome preparation
A further assay concerns the target T1, Acetylcholinesterase (Rattus norvegicus, UniProt P37136).
T1 sequence (P37136 whole entry): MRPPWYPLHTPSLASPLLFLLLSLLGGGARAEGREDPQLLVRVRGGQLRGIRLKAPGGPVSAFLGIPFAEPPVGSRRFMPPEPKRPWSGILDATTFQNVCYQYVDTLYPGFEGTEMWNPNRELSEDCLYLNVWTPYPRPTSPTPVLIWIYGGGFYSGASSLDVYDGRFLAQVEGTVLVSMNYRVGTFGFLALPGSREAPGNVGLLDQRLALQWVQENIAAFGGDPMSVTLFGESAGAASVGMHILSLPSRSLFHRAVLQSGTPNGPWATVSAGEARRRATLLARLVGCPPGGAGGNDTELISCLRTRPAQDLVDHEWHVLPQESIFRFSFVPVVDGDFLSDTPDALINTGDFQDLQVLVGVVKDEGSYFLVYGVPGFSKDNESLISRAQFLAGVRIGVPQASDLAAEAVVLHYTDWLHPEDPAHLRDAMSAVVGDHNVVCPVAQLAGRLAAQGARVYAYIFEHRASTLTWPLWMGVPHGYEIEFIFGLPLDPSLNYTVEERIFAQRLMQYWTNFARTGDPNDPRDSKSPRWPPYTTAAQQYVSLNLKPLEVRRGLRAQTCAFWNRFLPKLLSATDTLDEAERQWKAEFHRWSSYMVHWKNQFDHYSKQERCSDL

Assay [2] concerns the target Muscarinic acetylcholine receptor. It is filed as cell membranes, Membrane.
Description: Inhibition of [3H]quinuclidinyl benzilate (QNB) binding from rat forebrain membranes in the presence of Zn
The target is the same in assay [3]. In kind it is cell membranes, Membrane. The source holds these as a separate data set.
Description: Inhibition of [3H]quinuclidinyl benzilate (QNB) binding from rat forebrain membranes in the absence of Zn
Assay [4] is filed under the species Mus musculus. In words: animal or person.
Description: Effective dose against administration in mice
Assay [5] addresses T2, Adrenergic receptor alpha-2 (Rattus norvegicus, UniProt P22086+P19328+P22909).
T2 sequence (P22086 whole entry): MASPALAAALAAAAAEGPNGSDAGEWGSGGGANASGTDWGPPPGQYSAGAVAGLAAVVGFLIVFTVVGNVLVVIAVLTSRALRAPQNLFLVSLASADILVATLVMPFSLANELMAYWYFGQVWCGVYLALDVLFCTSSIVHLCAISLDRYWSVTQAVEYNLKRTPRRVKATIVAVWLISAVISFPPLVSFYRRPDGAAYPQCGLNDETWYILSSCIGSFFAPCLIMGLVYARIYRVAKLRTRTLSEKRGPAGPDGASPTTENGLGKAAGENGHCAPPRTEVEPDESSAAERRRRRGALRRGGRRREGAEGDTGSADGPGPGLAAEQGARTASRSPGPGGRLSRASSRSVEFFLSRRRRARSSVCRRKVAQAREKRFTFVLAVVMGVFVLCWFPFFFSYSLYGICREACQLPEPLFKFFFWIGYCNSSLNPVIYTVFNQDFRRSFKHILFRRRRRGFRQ
T2 sequence (P19328 whole entry): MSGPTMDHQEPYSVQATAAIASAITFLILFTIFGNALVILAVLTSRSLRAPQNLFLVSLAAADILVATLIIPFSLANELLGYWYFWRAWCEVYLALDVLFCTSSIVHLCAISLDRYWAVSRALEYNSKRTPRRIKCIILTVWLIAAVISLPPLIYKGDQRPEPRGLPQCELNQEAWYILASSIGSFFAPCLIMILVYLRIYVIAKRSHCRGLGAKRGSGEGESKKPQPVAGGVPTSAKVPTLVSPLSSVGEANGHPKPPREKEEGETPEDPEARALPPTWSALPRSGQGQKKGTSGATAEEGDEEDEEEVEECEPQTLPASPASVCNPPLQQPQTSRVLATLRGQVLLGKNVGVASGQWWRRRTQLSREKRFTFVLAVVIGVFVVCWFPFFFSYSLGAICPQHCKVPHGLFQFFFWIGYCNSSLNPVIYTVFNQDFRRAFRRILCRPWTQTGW
T2 sequence (P22909 whole entry): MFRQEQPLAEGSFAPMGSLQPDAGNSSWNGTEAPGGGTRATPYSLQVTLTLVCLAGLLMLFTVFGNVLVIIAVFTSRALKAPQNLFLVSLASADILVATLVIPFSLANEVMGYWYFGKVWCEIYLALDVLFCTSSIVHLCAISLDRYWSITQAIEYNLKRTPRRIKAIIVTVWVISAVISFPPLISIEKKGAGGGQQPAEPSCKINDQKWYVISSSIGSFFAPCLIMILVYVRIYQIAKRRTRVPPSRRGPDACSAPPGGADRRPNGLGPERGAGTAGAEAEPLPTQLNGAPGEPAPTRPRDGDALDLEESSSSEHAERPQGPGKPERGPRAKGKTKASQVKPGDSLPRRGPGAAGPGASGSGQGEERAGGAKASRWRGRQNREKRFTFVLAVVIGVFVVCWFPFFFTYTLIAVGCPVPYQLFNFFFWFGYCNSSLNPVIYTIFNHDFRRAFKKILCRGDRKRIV
As to the kind of experiment: Inhibitory activity against [3H]clonidine binding to Alpha-2 adrenergic receptor in rat cortex.

The species entered for assay [6] is Mus musculus. As to the kind of experiment: Antagonistic activity against Scopolamine induced behavioral deficits in mice; 3/9. It is filed as functional.
The test system of assay [7] is Mus musculus. As to the kind of experiment: Antagonistic activity against Scopolamine induced behavioral deficits in mice at dose 0.02 mg/kg sc. As to conditions: route subcutaneous. In kind it is functional.
For assay [8], the species on record is Mus musculus. As to conditions: dose 2.5 mg/kg; route subcutaneous.
Description: Antagonistic activity against Scopolamine induced behavioral deficits in mice at dose 2.5 mg/kg sc
The species named for assay [9] is Mus musculus. As to conditions: dose 5 mg/kg; route subcutaneous.
Description: Antagonistic activity against Scopolamine induced behavioral deficits in mice at dose 5.0 mg/kg sc
The species named for assay [10] is Mus musculus.
Assay [11] concerns Mus musculus. In words: Antagonistic activity against Scopolamine induced behavioral deficits in mice at dose 1.25 mg/kg sc. In kind it is functional. As to conditions: route subcutaneous.
The species named for assay [12] is Mus musculus. As to the kind of experiment: Antagonistic activity against Scopolamine induced behavioral deficits in mice; 1/6. In kind it is functional.
Assay [13] deals with Mus musculus. As to the kind of experiment: Antagonistic activity against Scopolamine induced behavioral deficits in mice at dose […] sc. In kind it is functional. As to conditions: route subcutaneous.

Sequence of Sodium-dependent noradrenaline transporter (P23975 whole entry): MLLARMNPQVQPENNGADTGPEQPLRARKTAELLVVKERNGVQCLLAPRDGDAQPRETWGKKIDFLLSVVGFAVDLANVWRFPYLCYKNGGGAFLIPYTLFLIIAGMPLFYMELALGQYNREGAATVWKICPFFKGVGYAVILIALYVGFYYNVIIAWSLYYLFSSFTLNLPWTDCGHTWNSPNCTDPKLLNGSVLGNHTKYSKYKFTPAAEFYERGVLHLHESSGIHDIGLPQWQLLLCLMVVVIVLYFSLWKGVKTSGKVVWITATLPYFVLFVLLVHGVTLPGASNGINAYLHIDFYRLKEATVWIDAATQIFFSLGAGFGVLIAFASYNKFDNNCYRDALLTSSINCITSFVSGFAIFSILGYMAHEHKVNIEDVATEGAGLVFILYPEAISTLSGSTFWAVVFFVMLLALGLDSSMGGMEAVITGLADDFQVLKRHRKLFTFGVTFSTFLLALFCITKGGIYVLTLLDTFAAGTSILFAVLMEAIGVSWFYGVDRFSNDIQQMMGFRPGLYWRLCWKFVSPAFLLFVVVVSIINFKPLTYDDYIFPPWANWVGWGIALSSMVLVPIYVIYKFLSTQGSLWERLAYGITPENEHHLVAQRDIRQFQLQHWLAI
Description for Acetylcholinesterase: Inhibitory activity against acetylcholinesterase in rat striatal preparation

For the compound `Brc1ccc2c(ccn2Nc2ccncc2)c1`, the concentration for half-maximal inhibition (IC50) in assay [1] was over 20 µM; at Acetylcholinesterase, over 100 µM; in [2] it was 7.5 µM; in assay [3], 44 µM. For the same compound, in the assay filed under Mus musculus [4], the median effective dose (ED50) was over 20 mg/kg.
On the same counts, the results for `O=C(O)/C=C/C(=O)O.c1cnn(Nc2ccncc2)c1` are over 20 µM, over 100 µM, 247 µM, over 1000 µM and over 20 mg/kg.
As for `CCCN(c1ccncc1)n1c(C)cc2ccccc21`, the IC50 in assay [1] is 1.1 µM; against Acetylcholinesterase, over 100 µM; in assay [2], 1.4 µM; in assay [5], 2.3 µM; in assay [3], 7.2 µM. In the assay listed under Mus musculus [6], this compound displayed an Antagonism of 3. Further, the results for the Response with Mus musculus [7], in the assay listed under Mus musculus [8] and in the assay listed under Mus musculus [9] were 20%, 20% and 23%, respectively. The same compound gave an ED50 in the assay filed under Mus musculus [4] of 3.2 mg/kg.
In the case of `O=C(O)/C=C/C(=O)O.c1ccc2c(c1)cnn2Nc1ccncc1`, the IC50 in assay [1] was 17 µM; against Acetylcholinesterase, over 100 µM; in [2] it was 29 µM; in assay [3] it was 128 µM. For the same compound, in the assay filed under Mus musculus [10], the Antagonism is listed as 0. Further, the ED50 in the assay filed under Mus musculus [4] turned out to be 3.8 mg/kg.
With `CCCN(c1ccncc1)n1ccc2cc(Cl)ccc21`, the IC50 in assay [1] is 1.9 µM; at Acetylcholinesterase, over 100 µM; in assay [2], 2.4 µM; in assay [3], 5.8 µM. The compound also displayed a Response in the assay with Mus musculus [11] of 20%. The same compound registered an ED50 in the assay filed under Mus musculus [4] of over 20 mg/kg. Also, the Antagonism in the assay listed under Mus musculus [12] came out at 1.
Regarding `CCCN(c1ccncc1)n1cc(C=O)c2ccccc21`, the IC50 in assay [1] was 2.2 µM; on Acetylcholinesterase it was 20 µM; in assay [2] it was 1.8 µM; in [3] it was 3.3 µM. For the same compound, in the assay listed under Mus musculus [10], the Antagonism was 0. For the same compound, in the assay listed under Mus musculus [4], the 50% effective dose (ED50) is 18 mg/kg.
Turning to `CCCN(c1ccncc1)n1cccn1.O=C(O)/C=C/C(=O)O`, the IC50 in [1] is over 20 µM; against Acetylcholinesterase, over 100 µM; in [2], 31 µM; in assay [3] it was 127 µM. The compound further displayed a 50% effective dose (ED50) in the assay listed under Mus musculus [4] of over 20 mg/kg.
On to `CCCN(c1ccncc1)n1cc2ccccc2n1`, for which the half-inhibitory concentration (IC50) in [1] is 4.7 µM; against Acetylcholinesterase, over 100 µM; in assay [2] it was 15 µM; in assay [3], 91 µM. Besides, the 50% effective dose (ED50) in the assay filed under Mus musculus [4] is over 20 mg/kg.
As for `O=C(O)/C=C/C(=O)O.c1ccc2c(c1)c1ccccc1n2Nc1ccncc1`, the 50% inhibitory concentration (IC50) was 1.4 µM in assay [1], over 100 µM at Acetylcholinesterase, 8.2 µM in assay [2] and 20 µM in [3]. Moreover, the Antagonism in the assay filed under Mus musculus [10] was determined as 0. The median effective dose (ED50) in the assay filed under Mus musculus [4] stood at 2.3 mg/kg.
As for `C=CCN(c1ccncc1)n1ccc2ccccc21`, the half-maximal inhibitory concentration (IC50) is 6.2 µM in assay [1], over 100 µM against Acetylcholinesterase, 1 µM in assay [2] and 7.3 µM in assay [3]. In the assay listed under Mus musculus [10], this compound had an Antagonism of 0. The compound further had an ED50 in the assay listed under Mus musculus [4] of 4.2 mg/kg.
Turning to `c1ccc2nn(Nc3ccncc3)cc2c1`, the IC50 in [1] is over 20 µM; on Acetylcholinesterase it was over 100 µM; in assay [2] it was 128 µM; in assay [3] it was 409 µM. The same compound registered an ED50 in the assay filed under Mus musculus [4] of over 20 mg/kg.
As for `COc1ccc2c(ccn2Nc2ccncc2)c1`, the half-maximal inhibitory concentration (IC50) was over 20 µM in assay [1], over 100 µM on Acetylcholinesterase, 7.5 µM in assay [2] and 44 µM in assay [3]. The 50% effective dose (ED50) in the assay listed under Mus musculus [4] was over 20 mg/kg.
For the compound `Cc1cn(Nc2ccncc2)c2ccccc12`, the IC50 in [1] was 12.8 µM; against Acetylcholinesterase, over 100 µM; in assay [2], 35 µM; in [3] it was 82 µM. Moreover, the Response with Mus musculus [13] was 33%. Also, the median effective dose (ED50) in the assay listed under Mus musculus [4] is 1 mg/kg. The compound further registered an Antagonism in the assay listed under Mus musculus [12] of 1.
For the compound `O=[N+]([O-])c1ccc2c(ccn2Nc2ccncc2)c1`, the half-inhibitory concentration (IC50) is 9.9 µM in assay [1], over 100 µM at Acetylcholinesterase, 12 µM in assay [2] and 146 µM in assay [3]. Also, the ED50 in the assay filed under Mus musculus [4] was over 20 mg/kg.
`Clc1cccc(Cl)c1NC1=NCCN1` [CLONIDINE] yielded an IC50 in [1] of over 20 µM. In addition, the Antagonism in the assay filed under Mus musculus [10] turned out to be 0. In addition, the 50% effective dose (ED50) in the assay filed under Mus musculus [4] amounted to 0.36 mg/kg.
As for `O=C1CCCN1CC#CCN1CCCC1` [OXOTREMORINE], the IC50 worked out at 0.66 µM in assay [2] and 2.7 µM in assay [3].
`COC(=O)[C@@H]1[C@H]2C[C@H]3c4[nH]c5ccccc5c4CCN3C[C@@H]2CC[C@@H]1O` [YOHIMBINE] came in with an ED50 in the assay filed under Mus musculus [4] of over 8 mg/kg.
